Laboratory results taken from US20240150346A1, “CLASS OF HETEROAROMATIC COMPOUND, PREPARATION METHOD THEREFOR AND USE THEREOF” (INNOVSTONE THERAPEUTICS LIMITED, priority 2021, published 2024).

molecular target: T1, human-derived receptor TLR7 (Homo sapiens, UniProt Q9NYK1); experiment: Assay on agonistic activity for human-derived receptor TLR7 (HEK-Blue hTLR7 cells, HEK-Blue Detection Medium); type: cell-based; conditions: 16 h incubation, absorbance at 655 nm, read-out: EC50
T1 construct: host or cells: HEK-Blue hTLR7 cells (HEK293-derived reporter line)
T1 sequence (Q9NYK1 27-1049): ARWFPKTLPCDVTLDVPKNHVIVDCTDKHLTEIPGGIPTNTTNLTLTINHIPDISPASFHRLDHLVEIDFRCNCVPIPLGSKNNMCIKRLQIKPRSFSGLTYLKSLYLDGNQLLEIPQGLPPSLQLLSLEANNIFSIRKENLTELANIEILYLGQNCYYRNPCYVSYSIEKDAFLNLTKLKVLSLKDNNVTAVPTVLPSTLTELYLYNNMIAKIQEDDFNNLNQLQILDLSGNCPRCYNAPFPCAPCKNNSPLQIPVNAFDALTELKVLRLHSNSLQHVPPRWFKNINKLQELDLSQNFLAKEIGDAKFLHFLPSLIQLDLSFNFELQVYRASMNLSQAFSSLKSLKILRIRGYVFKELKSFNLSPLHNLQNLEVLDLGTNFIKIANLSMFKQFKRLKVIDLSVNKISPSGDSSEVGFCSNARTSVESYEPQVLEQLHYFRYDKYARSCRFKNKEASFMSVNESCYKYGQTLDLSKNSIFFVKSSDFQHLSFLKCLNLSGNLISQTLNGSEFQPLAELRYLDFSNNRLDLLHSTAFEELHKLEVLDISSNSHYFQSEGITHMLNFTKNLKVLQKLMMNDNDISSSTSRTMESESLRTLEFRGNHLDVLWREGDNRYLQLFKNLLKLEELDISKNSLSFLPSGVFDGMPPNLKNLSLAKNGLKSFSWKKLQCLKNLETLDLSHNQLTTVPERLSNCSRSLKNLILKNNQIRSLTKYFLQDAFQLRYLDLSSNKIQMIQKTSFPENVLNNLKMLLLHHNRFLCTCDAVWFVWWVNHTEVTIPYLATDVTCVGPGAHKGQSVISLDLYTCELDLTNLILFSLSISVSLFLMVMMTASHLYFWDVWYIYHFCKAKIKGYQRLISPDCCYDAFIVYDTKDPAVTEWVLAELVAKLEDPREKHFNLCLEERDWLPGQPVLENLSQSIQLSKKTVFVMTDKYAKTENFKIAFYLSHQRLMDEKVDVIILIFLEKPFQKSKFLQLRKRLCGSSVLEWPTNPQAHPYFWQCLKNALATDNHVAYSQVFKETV
Experimental: HEK-Blue™ hTLR7 cells (InvivoGen, hkb-htlr7) were cultured in a DMEM complete medium (Gibco, 12100) containing 10% FBS (Invitrogen, 10099141), 1% P/S (Invitrogen, 15140122), 10 μg/mL Blasticidin (InvivoGen, ant-bl-1), 100 μg/mL Zeocin (InvivoGen, ant-zn-1), and 100 μg/mL Normocin (InvivoGen, ant-nr-1). The cells were cultured in an incubator at 37° C. with 5% CO2. When HEK-Blue™ hTLR7 cells reached a growth density of 70%-80%, cell passage was needed.
The agonistic activity for the human-derived receptor TLR7 by HEK-Blue™ hTLR7 cells was assayed by HEK-Blue™ Detection Medium (InvivoGen, hd-det2). First, a bag of HEK-Blue™ Detection Medium powder was dissolved in 50 mL of ultra-pure sterile water for complete dissolution, and then the dissolved medium was filtered into a new 50 mL centrifuge tube through a 0.22 μm filter. Finally, antibiotics were added into the filtered detection medium until the final concentration was 1% for P/S and 100 μg/mL for Normocin. HEK-Blue™ Detection Medium was pre-heated to 37° C. in advance on the day of the assay on the activity for the TLR7 receptor, and the temperature was always maintained at 37° C.
The compound powder was dissolved in 100% DMSO (Sigma, D2650-100ML) to obtain a 10 mM stock solution, and the compound was completely dissolved by shaking with an oscillator. The stock solution of the compound was subjected to a 5-fold dilution to 2 mM with 100% DMSO. This was followed by a 3-fold serial dilution for a total of 8 concentration gradients. Then, each of the concentration gradients was subjected to a 20-fold dilution to 100 μM, 33.3 μM, 11.1 μM, 3.7 μM, 1.23 μM, […], 0.114 μM, and 0.05 μM using HEK-Blue™ Detection Medium. 20 μL of each of the dilutions was added to a 96-well cell culture plate (Corning, 3599).
On the day of the assay on the agonistic activity for the human-detived receptor TLR7, HEK-Blue™ hTLR7 cells has a growth density of 70%-80%, and the cell medium was removed. 1 mL of cell dissociation buffer (Gibco, 13151-014) was added to each 100 mm cell culture dish, and the cells were incubated in an incubator at 37° C. for 5 min. The cells were pipetted using a DMEM cell medium to obtain a single cell suspension, which was then centrifuged at 1000 rpm for 10 min to collect the cell pellet. The cell pellet was resuspended with HEK-Blue™ Detection Medium pre heated to 37° C. The cells were counted and diluted to 220,000 cells/mL. Finally, 180 μL of cell suspension (40,000 cells/well) was added to each well of the 96-well cell culture plate to which the compound had been added, and the cell suspension was mixed with the compound using a pipettor. Final concentrations of the compound were 10 μM, 3.3 μM, 1.1 μM, 0.37 μM, 0.12 μM, 0.04 μM, 0.01 μM, and 0.005 μM. After incubation in an incubator at 37° C. for 16 h, the absorbance was read at 655 nm using an M5e microplate reader (MD, USA).
The EC50 of the compound was calculated using the software GraphPad Prism (GraphPad Software, USA). The background reading of the detection culture was subtracted from the absorbance readings at 655 nm of all wells of the 96-well plate, the ratio of each well to the negative control well (the well without the compound) was calculated, and then the percentage of the ratio of each well to the positive control well (the well treated with 10 μM positive compound), i.e., the percentage of activity, was calculated. Finally, the sigmoidal dose-response (variable slope) curve between the percentage of activity and the concentration of the compound was calculated using the software GraphPad Prism to calculate the EC50 of the compound. […]

Row | SMILES | EC50 [nM]
1 | CCCCOc1nc(N)c2[nH]c(=O)n(Cc3cccc(CN4CCCC4=O)c3)c2n1 [Example 42, 6-amino-2-butoxy-9-(3-((2-oxopyrrolidin-1-yl)methyl)benzyl)-7,9-dihydro-8H-purin-8-one] | < 50
2 | CCCCOc1nc(N)c2[nH]c(=O)n(Cc3ccc(CN4CCCC4)s3)c2n1 [Example 43, 6-amino-2-butoxy-9-((5-(pyrrolidin-1-ylmethyl)thien-2-yl)methyl)-7,9-dihydro-8H-purin-8-one] | < 50
3 | CCCCOc1nc(N)c2[nH]c(=O)n(Cc3ccc(CN4CCC(O)C4)s3)c2n1 (stereo not drawn) [Example 44, 6-amino-2-butoxy-9-((5-((3-hydroxypyrrolidin-1-yl)methyl)thien-2-yl)methyl)-7,9-dihydro-8H-purin-8-one] | < 50
4 | CCCCOc1nc(N)c2[nH]c(=O)n(Cc3ccc(CN4CCN(C(=O)CN)CC4)s3)c2n1 [Example 45, 6-amino-2-butoxy-9-((5-((4-glycylpiperazin-1-yl)methyl)thien-2-yl)methyl)-7,9-dihydro-8H-purin-8-one] | < 50
5 | CCCCOc1nc(N)c2[nH]c(=O)n(Cc3ccc(CN4CCNCC4)s3)c2n1 [Example 46] | < 50
6 | CCCCOc1nc(N)c2[nH]c(=O)n(Cc3ccc(CN4CCN(C(=O)CO)CC4)s3)c2n1 [Example 47] | < 50
7 | CCCCOc1nc(N)c2[nH]c(=O)n(Cc3ccc(CN4CCN(C(=O)COC)CC4)s3)c2n1 [Example 48] | < 50
8 | CCCCOc1nc(N)c2[nH]c(=O)n(Cc3ccc(CN4CCC(N)C4)s3)c2n1 (stereo not drawn) [Example 49, 6-amino-9-((5-((3-aminopyrrolidin-1-yl)methyl)thien-2-yl)methyl)-2-butoxy-7,9-dihydro-8H-purin-8-one] | < 50
9 | CCCCOc1nc(N)c2c(n1)CN(Cc1ccc(C(=O)N3CCCC3)cc1)C(=O)N2 [Example 50, 8-amino-6-butoxy-3-(4-(pyrrolidin-1-ylcarbonyl)benzyl)-3,4-dihydropyrimido[5,4-d]pyrimidin-2(1H)-one] | < 50
10 | CCN(CC)Cc1ccc(Cn2c(=O)[nH]c3c(N)nc4ccccc4c32)cc1C [Example 113] | 50 to 100
11 | Nc1nc2ccccc2c2c1[nH]c(=S)n2Cc1ccc(CN2CCCC2)cc1 [Example 155, 4-amino-1-(4-(pyrrolidin-1-ylmethyl)benzyl)-1,3-dihydro-2H-imidazo[4,5-c]quinoline-2-thione] | < 50
12 | CCCSc1nc2c(N)nc3ccccc3c2n1Cc1ccc(CN2CCCC2)cc1 [Example 159] | < 50
13 | C=CCSc1nc2c(N)nc3ccccc3c2n1Cc1ccc(CN2CCCC2)cc1 [Example 166] | < 50
14 | N#CCCSc1nc2c(N)nc3ccccc3c2n1Cc1ccc(CN2CCCC2)cc1 [Example 177] | 50 to 100
15 | Nc1nc2ccccc2c2c1nc(SCCF)n2Cc1ccc(CN2CCCC2)cc1 [Example 178] | 50 to 100
16 | Nc1nc2ccccc2c2c1nc(SCCC(F)(F)F)n2Cc1ccc(CN2CCCC2)cc1 [Example 181] | < 50
17 | CSc1nc2c(N)nc3ccccc3c2n1Cc1ccc(CNC(C)C)cc1 [Example 188] | 50 to 100
18 | CSc1nc2c(N)nc3ccccc3c2n1Cc1ccc(CN(C)C)cc1 [Example 189] | 50 to 100
19 | CCSc1nc2c(N)nc3ccccc3c2n1Cc1ccc(CN(C)C)cc1 [Example 190] | 50 to 100
20 | CCSc1nc2c(N)nc3ccccc3c2n1Cc1ccc(CNC(C)C)cc1 [Example 191] | < 50
21 | CSc1nc2c(N)nc3ccccc3c2n1Cc1ccc(CN2CC(O)C2)cc1 [Example 206] | 50 to 100
22 | CCSc1nc2c(N)nc3ccccc3c2n1Cc1ccc(CN2CC[C@H](O)C2)cc1 [Example 209] | 50 to 100
23 | C=CCSc1nc2c(N)nc3ccccc3c2n1Cc1ccc(CN2CC[C@H](F)C2)cc1 [Example 210] | 50 to 100
24 | C=CCSc1nc2c(N)nc3ccccc3c2n1Cc1ccc(CN2CC[C@@H](F)C2)cc1 [Example 211] | 50 to 100
25 | CSc1nc2c(N)nc3ccccc3c2n1Cc1ccc(N2CCN(C)CC2)cc1 [Example 212] | < 50
26 | CSc1nc2c(N)nc3ccccc3c2n1Cc1ccc(CN2CCNCC2)cc1 [Example 213] | 50 to 100
27 | CCSc1nc2c(N)nc3ccccc3c2n1Cc1ccc(CN2CCNCC2)cc1 [Example 214] | 50 to 100
28 | C=CCSc1nc2c(N)nc3ccccc3c2n1Cc1ccc(CN2CCNCC2)cc1 [Example 215] | < 50
29 | CSc1nc2c(N)nc3ccccc3c2n1Cc1ccc(CN2CCNCC2)s1 [Example 220] | 50 to 100

Results, then the compound that gave them:

Row | EC50 [nM] | SMILES
30 | 50 to 100 | CCCCOc1nc(N)c2c(n1)CN(Cc1ccc(CN3CCCC3)c(C)c1)C(=O)N2 [Example 66]
31 | 50 to 100 | CCCCOc1nc(N)c2c(n1)CN(Cc1ccc(Cn3ccnc3)c(C)c1)C(=O)N2 [Example 76]
32 | < 50 | CCCCOc1nc(N)c2c(n1)CN(Cc1ccc(C)c(CN3CCCC3)c1)C(=O)N2 [Example 78]
33 | < 50 | CCSc1nc2c(N)nc3ccccc3c2n1Cc1ccc(CN2CCCC2)cc1 [Example 156]
34 | < 50 | COCSc1nc2c(N)nc3ccccc3c2n1Cc1ccc(CN2CCCC2)cc1 [Example 157]
35 | 50 to 100 | CCCCSc1nc2c(N)nc3ccccc3c2n1Cc1ccc(CN2CCCC2)cc1 [Example 161]
36 | < 50 | Nc1nc2ccccc2c2c1nc(SCC1CC1)n2Cc1ccc(CN2CCCC2)cc1 [Example 163]
37 | 50 to 100 | C=CCCSc1nc2c(N)nc3ccccc3c2n1Cc1ccc(CN2CCCC2)cc1 [Example 165]
38 | < 50 | Nc1nc2ccccc2c2c1nc(SCC(F)F)n2Cc1ccc(CN2CCCC2)cc1 [Example 179]
39 | 50 to 100 | CSc1nc2c(N)nc3ccccc3c2n1Cc1ccc(-c2cnn(CCNC3CCC3)c2)cc1 [Example 196]
40 | 50 to 100 | CCSc1nc2c(N)nc3ccccc3c2n1Cc1ccc(CN2CC(O)C2)cc1 [Example 207]
41 | 50 to 100 | CSc1nc2c(N)nc3ccccc3c2n1Cc1ccc(OCCN(C)C)nc1 [Example 223]
42 | < 50 | COc1cc(CN2CCCC2)ccc1Cn1c(SC)nc2c(N)nc3ccccc3c21 [Example 233]
